Patent US9734283B2, “Genomic features associated with epigenetic control regions and transgenerational inheritance of epimutations” (priority 2011, dated 2017)
“Also recorded” adds a separate entry of the source.

Legend:
[1] = Serum hormone levels, F3 generation; format: in vivo, rat; conditions: F3 generation males
Experimental: Both female and male rats of F1, F2 and F3 generation at 90-120 days of age were euthanized by CO2 inhalation and cervical dislocation for dissection, collection and examination of tissues including testis, epididymis, and ovary. Body and tissue weights were measured at dissections. Blood samples were collected, allowed to clot, centrifuged and serum samples stored for hormone assays. Tissues were fixed in Bouins solution (Sigma) and 70% ethanol, then processed for paraffin embedding by standard procedures for histopathology examination. Five-micrometer sections were made and were either unstained or stained with H & E stain.

[2] = system: Harlan Sprague Dawley rats; experiment: Onset of puberty in F1-F3 generation after F0 gestational exposure; format: in vivo, rat
From the text: At proestrus as determined by daily vaginal smears, the female rats, (90 days) were pair-mated with male rats (120 days). On the next day, the females were separated and their vaginal smears were examined microscopically and if they were sperm-positive (day 0) the rats were tentatively considered pregnant and then weighed with a digital animal weighing balance to monitor increases in body weight. Vaginal smears were continued for monitoring diestrus status in these rats until day 7. […] These pregnant rats were then given daily intraperitoneal injections of any one of the following single chemicals or mixtures with an equal volume of sesame oil (Sigma) on days E-8 through E-14 of gestation. Treatment groups were Control, Pesticide (Permethrin+DEET), Plastics (Bisphenol-A, DBP and DEHP), Dioxin (TCDD), and Jet Fuel (JP8 hydrocarbon). The pregnant female rats treated with various mixtures were designated as the F0 generation. When there was a drop in the litter size and the sex ratio of pups in F1 generation of Plastics group, another treatment group was included with only half the dose of Bisphenol-A, DBP and DEHP and this group was designated ‘Low Dose Plastics’ group.
The offspring of the F0 generation were the F1 generation. Likewise F2 and F3 generation offspring were generated. These rats were weaned from their mothers at 21 days of age. At weaning, the following weaning traits were measured; litter size, sex ratio, weaning weight (in grams), and anogenital index (AGI). […] Weaning weights of rats were measured by a digital balance. AGI was computed as the AGD in mm (from the bottom of the anal opening to the top of the genital opening) per gram of body weight at weaning. Starting at the age of 30 days for females and 35 days for males, puberty checks were performed. These checks were performed on a daily basis until puberty in each rat was confirmed. Onset of puberty for females was indicated by a clear vaginal opening, and for males it was indicated when the glans penis was able to fully extend free of the preputial fold (balano-preputial separation).

[3] = system: sperm promoter epigenome (DNA methylation); experiment: MeDIP-Chip analysis of F3 generation sperm promoter DNA methylation; format: in vivo, rat; conditions: F3 generation sperm vs vehicle control; p<10^-5
Experimental: Sperm heads were separated from tails through sonication following previously described protocol (without protease inhibitors) and then purified using a series of washes and centrifugations from a total of nine F3 generation rats per treatment lineage that were 120 days of age. DNA extraction on the purified sperm heads was performed as previously described. Equal concentrations of DNA from individual sperm samples were then used to produce pools of DNA material. Three DNA pools were produced in total per treatment, which contained the same amount of sperm DNA from three animals. Therefore a total of 45 animals were used for building three DNA pools per treatment for the 4 experimental groups plus controls. These DNA pools were then used for methylated DNA immunoprecipitation (MeDIP). MeDIP was performed as follows: 6 μg of genomic DNA was subjected to series of three 20 pulse sonications at 20% amplitude and the appropriate fragment size ([…]) was verified through 2% agarose gels; the sonicated genomic DNA was resuspended in 350 ul TE and denaturated for 10 min at 95° C. and then immediately placed on ice for 5 min; 100 ul of 5×IP buffer (50 mM Na-phosphate pH7, 700 mM NaCl, 0.25% Triton X-100) was added to the sonicated and denatured DNA. […]

[4] = system: testicular spermatogenic cells; experiment: Testicular spermatogenic cell apoptosis (TUNEL assay), F1-F3 lineage after F0 gestational exposure; format: in vivo, mouse; conditions: 129 strain, flutamide 20 mg/kg/day IP to F0 E7-E13; any age or generation analyzed; vs control
Experimental: (§1) The experimental design involved exposing gestating female inbred 129 strain and outbred CD-1 strain mice to daily intraperitoneal (IP) injections of vehicle (DMSO) (control) or vinclozolin at two doses, 100 mg/kg/day (V1) or 200 mg/kg/day (V2), between embryonic day 7-13 of gestation. In addition, a comparison was used with flutamide IP injections at a 20/mg/kg/day dose. The F1 generation males and females from different litters were bred to generate the F2 generation animals and F2 generation males and females from different litters were bred to generate the F3 generation animals, see Methods below. No sibling or cousin breedings occurred to avoid any inbreeding artifacts. Selected F1, F2 and F3 generation animals from postnatal 90 (P90) or 300 (P300) days of age were analyzed for testis, sperm and other pathologies as previously described.^11, 20, 21
Timed pregnant inbred 129 mice were given intraperitoneal injections with vinclozolin (100 mg/kg·day, 99% pure; ChemService, West Chester, Pa.), flutamide (20 mg/kg·day, Sigma, St. Louis, Mo.) or DMSO in sesame oil (vehicle) as controls, while timed pregnant outbred CD-1 mice were given intraperitoneal injections (IP) with vinclozolin doses: 100 mg/kg·day (V1) or 200 mg/kg·day (V2) or DMSO in sesame oil as controls.^21 Mice were given injections from embryonic day (E) E7-E13, with plug date equal to day 0. Controls were injected with vehicle (DMSO) dose and were matched with vinclozolin or flutamide treatment animals within the same mouse strain at the time of injection and were analyzed together throughout all three generations. […] Male mice were collected and analyzed between P60-P90 (P90) for all generations and treatment groups. […]

129 and CD-1 mice = experiment: Litter size, sex ratio, body and tissue weights (toxicity); format: in vivo, mouse; conditions: transient embryonic exposure
Experimental: as §1
Timed pregnant inbred 129 mice were given intraperitoneal injections with vinclozolin (100 mg/kg·day, 99% pure; ChemService, West Chester, Pa.), flutamide (20 mg/kg·day, Sigma, St. Louis, Mo.) or DMSO in sesame oil (vehicle) as controls, while timed pregnant outbred CD-1 mice were given intraperitoneal injections (IP) with vinclozolin doses: 100 mg/kg·day (V1) or 200 mg/kg·day (V2) or DMSO in sesame oil as controls.^21 Mice were given injections from embryonic day (E) E7-E13, with plug date equal to day 0. Controls were injected with vehicle (DMSO) dose and were matched with vinclozolin or flutamide treatment animals within the same mouse strain at the time of injection and were analyzed together throughout all three generations. The number of treated gestating females used were: for mouse 129 strain (3 controls and 4 vinclozolin treated); for mouse 129 strain flutamide 20 mg/kg/day dose (3 controls and 3 flutamide treated); and for mouse CD-1 strain (4 control and 3 vinclozolin treated (100 mg/kg/day (V1), 3 vinclozolin 200 mg/kg/day (V2)). F1 postnatal (P)P90 males and females from different litters of control, vinclozolin and flutamide treatment groups were bred to generate the F2 generation. F2 generation mice were bred to generate the F3 generation. Breedings were carefully monitored to eliminate any sibling or cousin breeding to remove potential phenotypes as a result of inbreeding. Male mice were collected and analyzed between P60-P90 (P90) for all generations and treatment groups. The number of P90 males collected for replicates for the mouse 129 strain vinclozolin treatment group (i.e. n value) were: for F1 (8 control, 11 vinclozolin); for F2 (11 control, 22 vinclozolin); and for F3 (11 control, 11 vinclozolin). […]

caudal epididymal sperm = experiment: Epididymal sperm motility and concentration analyses; format: in vivo, mouse; conditions: primarily in the F1 generation males
Experimental: The sperm motility was determined using caudal epididymal sperm. The epididymis was dissected free of connective tissue and a small cut made to the cauda. The tissue was placed in 2 ml F12 culture medium containing 0.1% BSA for 10 minutes at 37° C. Fifty microliters was placed on a warm slide and gently cover-slipped. The specimen was immediately examined using phase contrast microscopy with 200×magnification. The sperm motility assays examined rapid progressive, slow progressive and non-progressive motility according to WHO category.^51 The ratio of motile sperm to the total number of sperm, including immotile sperm, was calculated. Approximately 50-100 sperm were counted per microscopic field. The procedure was repeated at least twice with a new specimen from the same epididymis. Epididymal sperm count was determined using the same epididymis according to a previously described method with some modifications.^25, 52 Briefly, the epididymis that was placed in the 2 ml of culture medium was minced. The tissue pieces were stored at 4° C. for 48 hours to immobilize the sperm. Three independent sperm samples were counted using a hemocytometer. The counts were averaged and used as a replicate in statistical analysis. The control and vinclozolin generation analysis and the control and flutamide generation analysis for an individual experiment were done at the same time. All analyses were done blinded, such that different individuals were used for collection and counting.

[5] = transgenerational F3 generation

SMILES	testosterone levels [1]	onset of puberty for females ([2]; F2 generation)	onset of puberty in males ([2]; F2 generation)	onset of puberty in females [2, 5]	onset of puberty in males [2, 5]	number of DMR [3]	apoptotic germ cells in the testis [4]	body weight, testis weight index, or kidney weight index (129 and CD-1 mice; F1-F3)	litter size or male/female sex ratio (129 and CD-1 mice; all generations analyzed)	mean percentage of motile epididymal sperm (caudal epididymal sperm)
Clc1cc2c(cc1Cl)Oc1cc(Cl)c(Cl)cc1O2 [dioxin, 2,3,7,8-tetrachlorodibenzo-p-dioxin]	reduction	early onset	early onset	early onset; also recorded: advanced	no effect	50	–	–	–	–
CC(C)C(=O)Nc1ccc([N+](=O)[O-])c(C(F)(F)F)c1 [flutamide]	–	–	–	–	–	–	no differences	no consistent transgenerational differences	no consistent transgenerational effects	reduction
